Experiments:
ddy masculine mouse = assay: Amnesia induced by carbon dioxide, passive avoidance in bright/dark box; type: in vivo; details: Group B: SK-818 + Foot Shocks + CO₂ Gas, 10.0 mg/kg/day orally from 3 days before
Protocol: A ddy masculine mouse was encaged in a […] of a testing box (comprising bright and dark chambers, each measuring 15.0 x 17.5 x 18.5 cm and provided with an inlet/outlet combination of 6.0 x 6.0 cm, and the time which it took the animal to walk into the dark chamber (the reaction potential time during acquisition, hereinafter referred to as A.T.) was then measured. From just after the animal walked into the dark chamber, foot shocks of 2.5 mA were continuously applied to the animal through a floor grid with a shock generator scrambler, made by Astech Co., Ltd., until the animal walked into the bright chamber. Immediately after the acquisition trial, the animal was encaged in a desiccator, and 15 l/min of CO₂ gas were injected into the desiccator for 40 to 45 seconds for suffocation. After the animal was removed from the desiccator, artificial aspiration was immediately tried thereon. The animal was then put back in a home cage.
After 24 hours of the acquisition trial, the animal was again encaged in the bright chamber of the testing box to measure the time which it took the animal to walk into the dark chamber (or the reaction potential time during the retention trial, hereinafter referred to as R.T.). SK-818, in the form of a mixture with feed, had been administered orally to the animal from 3 days before at a dose of 10.0 mg/kg/day.

Type B chronic hepatitis = assay: Clinical test for Type B chronic hepatitis against placebo; type: in vivo, patients
Protocol: The efficacy of SK-818 against Type B chronic hepatitis was examined, using a placebo as control.
The subjects were patients who had been diagnosed by biopsy as chronic hepatitis before at most one year in principle, were positive to HBe antigens and had Type B chronic hepatitis in need of treatment.
• (i) The drug under test was a capsule containing 10 mg of SK-818. • (ii) The control consisted only of lactose (a placebo).
The subjects followed the standard prescription of three capsules a day and one capsule each meal over 16 weeks in principle.
The general examination of the functioning of the livers and blood and the measurement of HBe antigens and antibodies were all carried out by the Virus Hepatitis Research Foundation.

Wistar masculine rats = assay: Relief of nephrotoxicity of mercuric chloride; type: in vivo
Protocol: The effect of SK-818 on the impairment of kidney-function by mercuric chloride was examined, using blood-urinary nitrogen levels as an index.
Mercuric chloride was subcutaneously administered to Wistar masculine rats (seven weeks of age) 6-10 per group, at a dose of 1.2 mg/kg. From 24 hours after the administration till the lapse of 96 hours, the animals were permitted to freely drink an aqueous solution containing 2,400 ppm of SK-818 (at an average dose of 231±14 mg/kg). […]

[1] = SK-818 against Placebo, time points with significance
[2] = determined by physicians, Total 95

3-oxygermylpropionic acid [SK-818]
A.T. (reaction potential time during acquisition) (ddy masculine mouse): 48.5 ± 9.1 s | R.T. (reaction potential time during the retention trial) (ddy masculine mouse; 24 hours after acquisition): 276.5 ± 19.3 s | GOT (Type B chronic hepatitis; 4W): ↓ * | GPT (Type B chronic hepatitis; 4W): ↓ * | HBe antibodies (RIA%) (Type B chronic hepatitis; 4W): ↑ * | HBe antigens (EIA) log (Type B chronic hepatitis; 4W): ↓*** | LDH (mu/ml) (Type B chronic hepatitis; 4W): ↓ + | Total Bilirubin (mg/dl) (Type B chronic hepatitis; 4W): ↓ * | AIP (KA) (Type B chronic hepatitis; 8W): ↓ + | Cholinesterase (ΔPH) (Type B chronic hepatitis; 8W): ↑ * | GOT (Type B chronic hepatitis; 8W): ↓ + | GPT (Type B chronic hepatitis; 8W): ↓** | HBe antibodies (RIA%) (Type B chronic hepatitis; 8W): ↑ * | HBe antigens (EIA) log (Type B chronic hepatitis; 8W): ↓ ** | LDH (mu/ml) (Type B chronic hepatitis; 8W): ↓ + | Total Cholesterol (mg/dl) (Type B chronic hepatitis; 8W): ↑ * | AIP (KA) (Type B chronic hepatitis; 12W): ↓ + | Cholinesterase (ΔPH) (Type B chronic hepatitis; 12W): ↑ * | GOT (Type B chronic hepatitis; 12W): ↓*** | GPT (Type B chronic hepatitis; 12W): ↓*** | HBe antibodies (RIA%) (Type B chronic hepatitis; 12W): ↑ ** | HBe antigens (EIA) log (Type B chronic hepatitis; 12W): ↓*** | LDH (mu/ml) (Type B chronic hepatitis; 12W): ↓ * | Serum Albumin (g/dl) (Type B chronic hepatitis; 12W): ↑ * | TTT (Type B chronic hepatitis; 12W): ↓** | Total Cholesterol (mg/dl) (Type B chronic hepatitis; 12W): ↑ * | ZTT (Type B chronic hepatitis; 12W): ↓** | γ-GTP (mu/ml) (Type B chronic hepatitis; 12W): ↓** | γ-Globulin (g/dl) (Type B chronic hepatitis; 12W): ↓** | GOT (Type B chronic hepatitis; 16W): ↓*** | GPT (Type B chronic hepatitis; 16W): ↓*** | HBe antibodies (RIA%) (Type B chronic hepatitis; 16W): ↑ * | HBe antigens (EIA) log (Type B chronic hepatitis; 16W): ↓*** | Serum Albumin (g/dl) (Type B chronic hepatitis; 16W): ↑ + | TTT (Type B chronic hepatitis; 16W): ↓*** | Total Cholesterol (mg/dl) (Type B chronic hepatitis; 16W): ↑ * | ZTT (Type B chronic hepatitis; 16W): ↓** | γ-GTP (mu/ml) (Type B chronic hepatitis; 16W): ↓ ** | γ-Globulin (g/dl) (Type B chronic hepatitis; 16W): ↓*** | Cholinesterase (ΔPH) (Type B chronic hepatitis; Af4W (after 4 weeks)): ↑ * | GOT (Type B chronic hepatitis; Af4W (after 4 weeks)): ↓ ** | GPT (Type B chronic hepatitis; Af4W (after 4 weeks)): ↓ ** | HBe antibodies (RIA%) (Type B chronic hepatitis; Af4W (after 4 weeks)): ↑ * | HBe antigens (EIA) log (Type B chronic hepatitis; Af4W (after 4 weeks)): ↓*** | TTT (Type B chronic hepatitis; Af4W (after 4 weeks)): ↓*** | ZTT (Type B chronic hepatitis; Af4W (after 4 weeks)): ↓** | γ-GTP (mu/ml) (Type B chronic hepatitis; Af4W (after 4 weeks)): ↓ ** | γ-Globulin (g/dl) (Type B chronic hepatitis; Af4W (after 4 weeks)): ↓*** | Cholinesterase (ΔPH) (Type B chronic hepatitis; Af8W (after 8 weeks)): ↑** | GOT (Type B chronic hepatitis; Af8W (after 8 weeks)): ↓ ** | GPT (Type B chronic hepatitis; Af8W (after 8 weeks)): ↓ ** | HBe antibodies (RIA%) (Type B chronic hepatitis; Af8W (after 8 weeks)): ↑ ** | HBe antigens (EIA) log (Type B chronic hepatitis; Af8W (after 8 weeks)): ↓*** | TTT (Type B chronic hepatitis; Af8W (after 8 weeks)): ↓ * | Total Cholesterol (mg/dl) (Type B chronic hepatitis; Af8W (after 8 weeks)): ↑* | ZTT (Type B chronic hepatitis; Af8W (after 8 weeks)): ↓ * | γ-GTP (mu/ml) (Type B chronic hepatitis; Af8W (after 8 weeks)): ↓ * | γ-Globulin (g/dl) (Type B chronic hepatitis; Af8W (after 8 weeks)): ↓ * | Cholinesterase (ΔPH), Differences between groups (Type B chronic hepatitis; [1]): 4w* 12W** Af4W* 8w** 16w* Af8w+ | GPT, Differences between groups (Type B chronic hepatitis; [1]): 8w* 12w** 16W* Af4w* | HBe antibodies (RIA%), Differences between groups (Type B chronic hepatitis; [1]): 4W* 12W* 16W* Af8w+ | HBe antigens (EIA) log, Differences between groups (Type B chronic hepatitis; [1]): 4W** 12W* 16W* Af4w* | TTT, Differences between groups (Type B chronic hepatitis; [1]): Af4w+ | Total Cholesterol (mg/dl), Differences between groups (Type B chronic hepatitis; [1]): 8W* 16W** 12W** Af8w* | γ-Globulin (g/dl), Differences between groups (Type B chronic hepatitis; [1]): 12W+ Af4w* 16w+ Af8w+ | Rate of Amelioration, Slightly ameliorated or more (Type B chronic hepatitis; determined by physicians, P=0.0011 against placebo): 57.9% | Rate of Amelioration, Ameliorated to some or higher extent (Type B chronic hepatitis; determined by physicians, P=0.0114 against placebo): 36.8 | Degree of Amelioration: Ameliorated to some extent (number of cases) (Type B chronic hepatitis; [2]): 23 | Degree of Amelioration: Less aggravated (number of cases) (Type B chronic hepatitis; [2]): 5 | Degree of Amelioration: Nochange (number of cases) (Type B chronic hepatitis; [2]): 31 | Degree of Amelioration: Slightly ameliorated (number of cases) (Type B chronic hepatitis; [2]): 20 | Degree of Amelioration: aggravated (number of cases) (Type B chronic hepatitis; [2]): 4 | Degree of Amelioration: seriously aggravated (number of cases) (Type B chronic hepatitis; [2]): 0 | Degree of Amelioration: Remarkably ameliorated (number of cases) (Type B chronic hepatitis; determined by physicians, Total 95, 10 mg capsule three a day over 16 weeks): 12 | Blood-urinary nitrogen (Wistar masculine rats; 0 hour, mercuric chloride 1.2 mg/kg s.c.): 15.1 ± 0.4 mg/dL | Blood-urinary nitrogen (Wistar masculine rats; 24 hours after mercuric chloride, drinking of 2400ppm aqueous solution starts at 24 hours): 31.9 ± 1.3 mg/dL | Blood-urinary nitrogen (Wistar masculine rats; 48 hours after mercuric chloride, 2400ppm aqueous solution): 50.6 ± 9.8 mg/dL | Blood-urinary nitrogen (Wistar masculine rats; 72 hours after mercuric chloride, 2400ppm aqueous solution): 45.9 ± 13.8 mg/dL | Blood-urinary nitrogen (Wistar masculine rats; 92 hours after mercuric chloride, 2400ppm aqueous solution): 30.9 ± 9.4 mg/dL

Reference: patent publication EP0435693B1, “Pharmaceutical compositions containing 3-oxygermylpropionic acid polymers for inhibiting the degeneration of cells” (SANWA KAGAKU KENKYUSHO CO., LTD., priority 1989, dated 1991)
